The data set is described as follows: Solubility experiment in cyclohexanone (CHON). The conditions noted are these: normal temperature/pressure, whether 0.1 wt % or more was dissolved. Format: physicochemical. Here is the method:
In order to confirm the solubility in the solvent used in the solution process of the compounds prepared in the Preparation Examples and the comparative compounds, each of them was dissolved in the solvent cyclohexanone (CHON) under normal temperature/pressure conditions, and it was confirmed whether 0.1 wt % or more was dissolved.
`Cc1cccc(N(c2ccc3c4c5ccc6c(c5ccc4n(-c4ccccc4)c3c2)c2ccc(N(c3ccc4c5c7ccc8c(c7ccc5n(-c5ccccc5)c4c3)c3ccc(N(c4cccc(C)c4)c4cccc5c4oc4ccccc45)cc3n8-c3ccccc3)c3ccc4c5c7ccc8c(c7ccc5n(-c5ccccc5)c4c3)c3ccc(N(c4cccc(C)c4)c4cccc5c4oc4ccccc45)cc3n8-c3ccccc3)cc2n6-c2ccccc2)c2cccc3c2oc2ccccc23)c1` [Compound 1]: the “Solubility, Solvent CHON” value is on record as “○ (Evaluation list (○): 0.1 wt. % or more soluble)”.

Regarding `c1ccc(-n2c3ccccc3c3cc(-c4ccc(N(c5ccc6ccccc6c5)c5ccc6c7c8ccc9c(c8ccc7n(-c7ccccc7)c6c5)c5ccc(N(c6ccc7c8c%10ccc%11c(c%10ccc8n(-c8ccccc8)c7c6)c6ccc(N(c7ccc(-c8ccc%10c(c8)c8ccccc8n%10-c8ccccc8)cc7)c7ccc8ccccc8c7)cc6n%11-c6ccccc6)c6ccc7c8c%10ccc%11c(c%10ccc8n(-c8ccccc8)c7c6)c6ccc(N(c7ccc(-c8ccc%10c(c8)c8ccccc8n%10-c8ccccc8)cc7)c7ccc8ccccc8c7)cc6n%11-c6ccccc6)cc5n9-c5ccccc5)cc4)ccc32)cc1` [Compound 3], the “Solubility, Solvent CHON” value is “○ (Evaluation list (○): 0.1 wt. % or more soluble)”.

Take `Cc1cccc(N(c2ccc3c4c5ccc6c(c5ccc4n(-c4ccccc4)c3c2)c2ccc(-c3cc(-c4ccc5c7c8ccc9c(c8ccc7n(-c7ccccc7)c5c4)c4ccc(N(c5cccc(C)c5)c5cccc7c5oc5ccccc57)cc4n9-c4ccccc4)cc(-c4ccc5c7c8ccc9c(c8ccc7n(-c7ccccc7)c5c4)c4ccc(N(c5cccc(C)c5)c5cccc7c5oc5ccccc57)cc4n9-c4ccccc4)c3)cc2n6-c2ccccc2)c2cccc3c2oc2ccccc23)c1` [Compound 4]: the “Solubility, Solvent CHON” value is “○ (Evaluation list (○): 0.1 wt. % or more soluble)”.

Take `CC(C)(C)c1ccc(N(c2ccc(C(C)(C)C)cc2)c2ccc3c4c5ccc6c(c5ccc4n(-c4ccccc4)c3c2)c2ccc(-c3cc(-c4ccc5c7c8ccc9c(c8ccc7n(-c7ccccc7)c5c4)c4ccc(N(c5ccc(C(C)(C)C)cc5)c5ccc(C(C)(C)C)cc5)cc4n9-c4ccccc4)cc(-c4ccc5c7c8ccc9c(c8ccc7n(-c7ccccc7)c5c4)c4ccc(N(c5ccc(C(C)(C)C)cc5)c5ccc(C(C)(C)C)cc5)cc4n9-c4ccccc4)c3)cc2n6-c2ccccc2)cc1` [Compound 5]: the “Solubility, Solvent CHON” value was “○ (Evaluation list (○): 0.1 wt. % or more soluble)”.

For the compound `CC(C)(C)c1ccc(N(c2ccc(C(C)(C)C)cc2)c2ccc3c4c5ccc6c(c5ccc4n(-c4ccccc4)c3c2)c2ccc(N(c3ccc(C(C)(C)C)cc3)c3cc(N(c4ccc(C(C)(C)C)cc4)c4ccc5c7c8ccc9c(c8ccc7n(-c7ccccc7)c5c4)c4ccc(N(c5ccc(C(C)(C)C)cc5)c5ccc(C(C)(C)C)cc5)cc4n9-c4ccccc4)cc(N(c4ccc(C(C)(C)C)cc4)c4ccc5c7c8ccc9c(c8ccc7n(-c7ccccc7)c5c4)c4ccc(N(c5ccc(C(C)(C)C)cc5)c5ccc(C(C)(C)C)cc5)cc4n9-c4ccccc4)c3)cc2n6-c2ccccc2)cc1` [Compound 12], the “Solubility, Solvent CHON” value is reported as “○ (Evaluation list (○): 0.1 wt. % or more soluble)”.

Take `Cc1cccc(N(c2ccc3c4c5ccc6c(c5ccc4n(-c4ccccc4)c3c2)c2ccc(Oc3cc(Oc4ccc5c7c8ccc9c(c8ccc7n(-c7ccccc7)c5c4)c4ccc(N(c5cccc(C)c5)c5cccc7c5oc5ccccc57)cc4n9-c4ccccc4)cc(Oc4ccc5c7c8ccc9c(c8ccc7n(-c7ccccc7)c5c4)c4ccc(N(c5cccc(C)c5)c5cccc7c5oc5ccccc57)cc4n9-c4ccccc4)c3)cc2n6-c2ccccc2)c2cccc3c2oc2ccccc23)c1` [Compound 14]: the “Solubility, Solvent CHON” value is recorded as “○ (Evaluation list (○): 0.1 wt. % or more soluble)”.

For `Cc1cccc(N(c2ccc3c4c5ccc6c(c5ccc4n(-c4ccccc4)c3c2)c2ccc(Oc3cccc(-c4cc(-c5cccc(Oc7ccc8c9c%10ccc%11c(c%10ccc9n(-c9ccccc9)c8c7)c7ccc(N(c8cccc(C)c8)c8cccc9c8oc8ccccc89)cc7n%11-c7ccccc7)c5)cc(-c5cccc(Oc7ccc8c9c%10ccc%11c(c%10ccc9n(-c9ccccc9)c8c7)c7ccc(N(c8cccc(C)c8)c8cccc9c8oc8ccccc89)cc7n%11-c7ccccc7)c5)c4)c3)cc2n6-c2ccccc2)c2cccc3c2oc2ccccc23)c1` [Compound 15], the “Solubility, Solvent CHON” value is “○ (Evaluation list (○): 0.1 wt. % or more soluble)”.

On to `Cc1cccc(N(c2ccc3c4c5ccc6c(c5ccc4n(-c4ccccc4)c3c2)c2ccc(Oc3ccc(-c4cc(-c5ccc(Oc7ccc8c9c%10ccc%11c(c%10ccc9n(-c9ccccc9)c8c7)c7ccc(N(c8cccc(C)c8)c8cccc9c8oc8ccccc89)cc7n%11-c7ccccc7)cc5)cc(-c5ccc(Oc7ccc8c9c%10ccc%11c(c%10ccc9n(-c9ccccc9)c8c7)c7ccc(N(c8cccc(C)c8)c8cccc9c8oc8ccccc89)cc7n%11-c7ccccc7)cc5)c4)cc3)cc2n6-c2ccccc2)c2cccc3c2oc2ccccc23)c1` [Compound 16], for which the “Solubility, Solvent CHON” value is recorded as “○ (Evaluation list (○): 0.1 wt. % or more soluble)”.

Turning to `Cc1cccc(N(c2ccc3c(c2)c2c4ccc5c(c4ccc2n3-c2ccccc2)c2cc(N(c3ccc4c(c3)c3c6ccc7c(c6ccc3n4-c3ccccc3)c3cc(N(c4cccc(C)c4)c4cccc6c4oc4ccccc46)ccc3n7-c3ccccc3)c3ccc4c(c3)c3c6ccc7c(c6ccc3n4-c3ccccc3)c3cc(N(c4cccc(C)c4)c4cccc6c4oc4ccccc46)ccc3n7-c3ccccc3)ccc2n5-c2ccccc2)c2cccc3c2oc2ccccc23)c1` [Compound 17], the “Solubility, Solvent CHON” value was “○ (Evaluation list (○): 0.1 wt. % or more soluble)”.

As for `Cc1cccc(N(c2cccc3c2oc2ccccc23)c2cccc3c2c2c4ccc5c(c4ccc2n3-c2ccccc2)c2c(N(c3cccc4c3c3c6ccc7c(c6ccc3n4-c3ccccc3)c3c(N(c4cccc(C)c4)c4cccc6c4oc4ccccc46)cccc3n7-c3ccccc3)c3cccc4c3c3c6ccc7c(c6ccc3n4-c3ccccc3)c3c(N(c4cccc(C)c4)c4cccc6c4oc4ccccc46)cccc3n7-c3ccccc3)cccc2n5-c2ccccc2)c1` [Compound 19], the “Solubility, Solvent CHON” value is “○ (Evaluation list (○): 0.1 wt. % or more soluble)”.

(Values after patent publication US12532661B2, “Compound and organic light emitting device comprising the same” (LG Chem, Ltd., priority 2020, dated 2026).)
